Activity calls are given as the source filed them. No cut-off for these calls is given here.

For experiment [1], the system named is Escherichia coli. As to the kind of experiment: Inhibition of Escherichia coli beta-glucuronidase using para-nitrophenyl-beta-D-glucuronide as substrate at 0.2 mM incubated for 30 min prior to substrate addition measured for 30 min by spectrophotometric analysis.
The nature of experiment [2]: Inhibition of Escherichia coli beta-glucuronidase using para-nitrophenyl-beta-D-glucuronide as substrate incubated for 30 min prior to substrate addition measured for 30 min by spectrophotometric analysis.

A word on the inhibition: it is the relative decrease from the control value, in per cent. As usually defined, the IC50 is the concentration needed to halve the response being measured. Read a high IC50 as lower potency. Turning to `COc1cccc(CC(=O)NNC(=O)Nc2cccc(OC)c2)c1`, the inhibition in experiment [1] amounted to 70.8%. In addition, the IC50 in experiment [2] was determined as 101 µM.

For `COc1ccc(CCc2n[nH]c(=O)n2-c2ccccc2OC)cc1`, in experiment [1], the inhibition entry is “inactive”.

Consider `COc1cccc(CCC(=O)NNC(=O)Nc2cccc(OC)c2)c1`, for which the inhibition in experiment [1] worked out at 52%. Also, in experiment [2], the IC50 is 179 µM.

Take `O=C(O)[C@@H](O)[C@H]1OC(=O)[C@H](O)[C@H]1O`: the inhibition in experiment [1] amounted to 86.2%.

The molecule `COc1ccc(CC(=O)NNC(=O)Nc2ccccc2OC)cc1` had an inhibition in experiment [1] of 94.5%. This molecule also had an IC50 in experiment [2] of 16.8 µM.

Consider `COc1cccc(Cc2n[nH]c(=O)n2-c2ccccc2OC)c1`, for which, in experiment [1], the inhibition result was “inactive”.

Regarding `COc1cccc(-n2c(Cc3ccccc3OC)n[nH]c2=O)c1`, the inhibition result in experiment [1] was “inactive”.

In experiment [1], `COc1ccc(NC(=O)NNC(=O)CCc2cccc(OC)c2)cc1` gave an inhibition of 73.3%. Further, in experiment [2], the concentration for half-maximal inhibition (IC50) stood at 74.5 µM.

In the case of `COc1ccc(-n2c(CCc3ccccc3OC)n[nH]c2=O)cc1`, the inhibition entry in experiment [1] is “inactive”.

`COc1ccccc1CCC(=O)NNC(=O)Nc1ccccc1OC` returned an inhibition in experiment [1] of 77.6%. Besides, half-maximal inhibition in experiment [2] (IC50) was put at 67.3 µM.

Turning to `COc1cccc(NC(=O)NNC(=O)CCc2ccccc2OC)c1`, the inhibition in experiment [1] came to 54.6%. The molecule further returned an IC50 in experiment [2] of 83.7 µM.

In the case of `COc1cccc(CCc2n[nH]c(=O)n2-c2cccc(OC)c2)c1`, the inhibition entry in experiment [1] is “inactive”.

Turning to `COc1ccc(CCc2n[nH]c(=O)n2-c2cccc(OC)c2)cc1`, the inhibition entry in experiment [1] is “inactive”.

In experiment [1], `COc1ccccc1CC(=O)NNC(=O)Nc1ccccc1OC` showed an inhibition of 88.8%. Also, the IC50 in experiment [2] worked out at 40.7 µM.

Regarding `COc1ccc(CCC(=O)NNC(=O)Nc2cccc(OC)c2)cc1`, the inhibition in experiment [1] came out at 59.3%. The IC50 in experiment [2] worked out at 96.7 µM.

In turn, `COc1cccc(NC(=O)NNC(=O)Cc2ccccc2OC)c1` gave an inhibition in experiment [1] of 46.5%.

For the molecule `COc1ccccc1Cc1n[nH]c(=O)n1-c1ccccc1OC`, the inhibition entry in experiment [1] is “inactive”.

`COc1ccc(CCC(=O)NNC(=O)Nc2ccccc2OC)cc1` came in with an inhibition in experiment [1] of 83.7%. The molecule further displayed an IC50 in experiment [2] of 46.1 µM.

`COc1ccc(NC(=O)NNC(=O)CCc2ccccc2OC)cc1` showed an inhibition in experiment [1] of 87.9%. 15.5 µM corresponded to half-maximal inhibition in experiment [2] (IC50).

As to `COc1ccccc1CCc1n[nH]c(=O)n1-c1ccccc1OC`, the inhibition result in experiment [1] is “inactive”.

As to `COc1cccc(CCc2n[nH]c(=O)n2-c2ccccc2OC)c1`, in experiment [1], the inhibition result is “inactive”.

As for `COc1ccc(Cc2n[nH]c(=O)n2-c2ccccc2OC)cc1`, in experiment [1], the inhibition entry is “inactive”.

Consider `COc1cccc(CC(=O)NNC(=O)Nc2ccccc2OC)c1`, for which the inhibition in experiment [1] turned out to be 68.3%. In experiment [2], this molecule came in with an IC50 of 134 µM.

Regarding `COc1cccc(Cc2n[nH]c(=O)n2-c2cccc(OC)c2)c1`, the inhibition entry in experiment [1] was “inactive”.

With `COc1cccc(-n2c(CCc3ccccc3OC)n[nH]c2=O)c1`, the inhibition result in experiment [1] was “inactive”.

Take `COc1cccc(CCC(=O)NNC(=O)Nc2ccccc2OC)c1`: the inhibition in experiment [1] is 82.9%. Also, in experiment [2], half-maximal inhibition (IC50) required 52.4 µM.

The values above are taken from ChEMBL document CHEMBL3044616, “Synthesis, crystal structure and -glucuronidase inhibition activity of some new hydrazinecarboxamides and their 1,2,4-triazole derivatives” (Med Chem Res, 2012).
